The source made the active and inactive calls. The rule behind the calls is not given here.
Key:
[1] = Protein binding in rat plasma; format: ADME, cell-free; conditions: read-out: PPB (converted)
[2] = Protein binding in human plasma; format: ADME, cell-free; conditions: read-out: PPB (converted)
Cytochrome P450 3A4 [3] = molecular target: T1, Cytochrome P450 3A4 (Homo sapiens, UniProt P08684); test: Inhibition of CYP3A4 (unknown origin) using testosterone as substrate; format: ADME
Cytochrome P450 2C19 = Cytochrome P450 2C19 (Homo sapiens, UniProt P33261); test: Inhibition of CYP2C19 (unknown origin); format: ADME
Sequence of Cytochrome P450 2C19 (P33261 whole entry): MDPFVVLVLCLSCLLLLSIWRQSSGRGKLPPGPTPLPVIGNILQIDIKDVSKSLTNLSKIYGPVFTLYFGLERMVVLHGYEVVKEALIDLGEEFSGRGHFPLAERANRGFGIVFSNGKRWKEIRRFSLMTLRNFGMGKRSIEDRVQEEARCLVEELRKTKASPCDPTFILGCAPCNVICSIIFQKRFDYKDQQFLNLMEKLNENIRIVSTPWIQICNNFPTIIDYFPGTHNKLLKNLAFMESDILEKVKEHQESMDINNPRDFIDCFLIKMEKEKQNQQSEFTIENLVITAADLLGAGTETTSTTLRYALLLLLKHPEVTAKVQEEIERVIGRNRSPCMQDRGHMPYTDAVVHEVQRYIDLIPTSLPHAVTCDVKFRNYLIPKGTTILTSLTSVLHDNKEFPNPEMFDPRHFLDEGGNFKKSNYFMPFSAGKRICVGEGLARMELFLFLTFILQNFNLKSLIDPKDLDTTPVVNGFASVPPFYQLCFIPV

[4] = molecular target: T2, Free fatty acid receptor 1 (Homo sapiens, UniProt O14842); test: Agonist activity at human GPR40 receptor expressed in CHOK1 cells assessed as induction of IP1 accumulation at 10 uM relative to TAK875; format: functional, cell-based; conditions: CHO-K1, filed as agonist
T2 sequence (O14842 whole entry): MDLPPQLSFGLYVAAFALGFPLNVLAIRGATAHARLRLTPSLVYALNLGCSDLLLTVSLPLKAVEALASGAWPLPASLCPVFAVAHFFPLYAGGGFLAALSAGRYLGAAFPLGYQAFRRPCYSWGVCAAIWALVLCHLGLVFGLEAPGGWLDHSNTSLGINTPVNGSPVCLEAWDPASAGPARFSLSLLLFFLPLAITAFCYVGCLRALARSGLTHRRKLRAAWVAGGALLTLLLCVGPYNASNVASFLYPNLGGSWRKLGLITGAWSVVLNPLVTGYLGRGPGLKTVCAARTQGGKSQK

Rattus norvegicus [5] = test: Anti-glycemic activity in fasted Sprague-Dawley ZDF rat assessed as reduction in post-prandial hyperglycemia administered 30 mins prior to glucose challenge and measured for 120 mins by OGTT; format: functional; conditions: 2.5 h, time 150 min, read-out: MED
Cytochrome P450 3A4 [6] = molecular target: T1, Cytochrome P450 3A4; test: Inhibition of CYP3A4 (unknown origin) using midazolam as substrate; format: ADME
[7] = molecular target: T3, Free fatty acid receptor 2 (Homo sapiens) (UniProt O15552); test: Agonist activity at GPR43 (unknown origin)
T3 sequence (whole entry): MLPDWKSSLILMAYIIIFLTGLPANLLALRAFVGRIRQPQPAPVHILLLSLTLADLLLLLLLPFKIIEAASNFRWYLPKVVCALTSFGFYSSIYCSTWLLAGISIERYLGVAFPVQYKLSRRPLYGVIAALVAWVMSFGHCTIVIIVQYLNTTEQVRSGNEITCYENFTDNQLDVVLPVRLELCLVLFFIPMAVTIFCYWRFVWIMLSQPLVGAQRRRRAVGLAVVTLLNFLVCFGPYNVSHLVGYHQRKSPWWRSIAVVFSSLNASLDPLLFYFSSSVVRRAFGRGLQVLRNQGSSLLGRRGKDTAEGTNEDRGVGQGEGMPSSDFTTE

[8] = molecular target: T4, Free fatty acid receptor 3 (Homo sapiens) (UniProt O14843); test: Agonist activity at GPR41 (unknown origin)
T4 sequence (whole entry): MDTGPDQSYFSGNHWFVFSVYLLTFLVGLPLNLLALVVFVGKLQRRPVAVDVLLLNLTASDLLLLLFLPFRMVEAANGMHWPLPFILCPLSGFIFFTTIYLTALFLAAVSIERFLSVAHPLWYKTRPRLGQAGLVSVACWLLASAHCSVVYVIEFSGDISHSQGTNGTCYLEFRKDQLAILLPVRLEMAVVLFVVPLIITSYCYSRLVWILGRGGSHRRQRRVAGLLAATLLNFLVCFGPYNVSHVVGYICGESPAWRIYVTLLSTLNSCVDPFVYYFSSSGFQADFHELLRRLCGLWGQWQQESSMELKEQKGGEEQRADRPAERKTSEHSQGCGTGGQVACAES

Mus musculus [9] = test: Induction of GLP-1 secretion in GPR40 knock-out mouse at 100 mg/kg; format: functional, organism-based
[10] = Drug metabolism in human assessed as (3S)-3-cyclopropyl-3-(3-((5-(5-fluoro-2-hydroxypyridin-4-yl)-6-isobutylpyrazin-2-yl)methoxy)phenyl)propanoic acid metabolite formation by MetID studies; format: ADME
Mus musculus [11] = test: In vivo agonist activity at GPR40 in C57 mouse assessed as induction of GLP1 secretion at 100 mg/kg; format: functional, organism-based
Rattus norvegicus [12] = test: Anti-glycemic activity in fasted Sprague-Dawley ZDF rat assessed as reduction in post-prandial hyperglycemia by measuring AUC(0 to 2 hrs) for blood glucose at 10 mg/kg administered daily for 8 days and measured on day 8 by OGTT; format: functional; conditions: time 8 day
Rattus norvegicus [13] = test: Anti-glycemic activity in fasted Sprague-Dawley ZDF rat assessed as reduction in post-prandial hyperglycemia by measuring AUC(0 to 2 hrs) for blood glucose at 3 mg/kg administered daily for 8 days and measured on day 8 by OGTT; format: functional; conditions: time 8 day
Rattus norvegicus [14] = test: Anti-glycemic activity in fasted Sprague-Dawley ZDF rat assessed as reduction in post-prandial hyperglycemia by measuring AUC(0 to 2 hrs) for blood glucose at 3 mg/kg administered for 1 day and measured on day 1 by OGTT; format: functional
Rattus norvegicus [15] = test: Anti-glycemic activity in fasted Sprague-Dawley ZDF rat assessed as increase in insulin secretion by measuring insulin level in plasma at 3 mg/kg administered 30 mins prior to glucose challenge measured after 140 mins by OGTT; format: functional; conditions: time 170 min, 2.833 h
Rattus norvegicus [16] = test: Anti-glycemic activity in fasted Sprague-Dawley ZDF rat assessed as increase in insulin secretion by measuring insulin level in plasma at 10 mg/kg administered 30 mins prior to glucose challenge measured after 140 mins by OGTT; format: functional; conditions: time 170 min, 2.833 h
Rattus norvegicus [17] = test: Anti-glycemic activity in fasted Sprague-Dawley ZDF rat assessed as increase in insulin secretion by measuring insulin level in plasma at 1 mg/kg administered 30 mins prior to glucose challenge measured after 140 mins by OGTT; format: functional; conditions: time 170 min, 2.833 h
Mus musculus [18] = species on record: Mus musculus; test: Anti-glycemic activity in C57 mouse assessed as reduction in blood glucose excursion measured for 120 mins by IPGTT; format: functional, organism-based
[19] = molecular target: Free fatty acid receptor 1 (Rattus norvegicus) (UniProt Q8K3T4); test: Agonist activity at GPR40 in rat INS1 (832/13) cells assessed as induction of glucose-stimulated insulin secretion in presence of 10 mM glucose; format: cell-based; conditions: INS-1 832/13, filed as agonist
Sequence of Free fatty acid receptor 1 (Rattus norvegicus) (Q8K3T4 whole entry): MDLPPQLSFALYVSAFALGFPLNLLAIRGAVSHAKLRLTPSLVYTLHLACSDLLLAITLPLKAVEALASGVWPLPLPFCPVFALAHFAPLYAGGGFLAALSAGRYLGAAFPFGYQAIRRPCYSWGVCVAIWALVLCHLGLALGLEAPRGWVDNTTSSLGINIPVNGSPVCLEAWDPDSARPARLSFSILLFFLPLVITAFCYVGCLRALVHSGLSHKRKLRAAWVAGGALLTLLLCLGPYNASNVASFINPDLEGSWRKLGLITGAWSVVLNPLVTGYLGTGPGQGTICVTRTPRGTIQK

[20] = molecular target: Free fatty acid receptor 1 (Rattus norvegicus) (UniProt Q8K3T4); test: Agonist activity at GPR40 receptor in rat INS1(832/13) cells assessed as induction of IP1 accumulation at 10 uM relative to AM1638; format: functional, cell-based; conditions: INS-1 832/13, filed as agonist
[21] = molecular target: Free fatty acid receptor 1 (Rattus norvegicus) (UniProt Q8K3T4); test: Agonist activity at GPR40 receptor in rat INS1(832/13) cells assessed as induction of IP1 accumulation at 10 uM relative to TAK875; format: functional, cell-based; conditions: INS-1 832/13, filed as agonist
[22] = molecular target: Free fatty acid receptor 1 (Rattus norvegicus) (UniProt Q8K3T4); test: Agonist activity at GPR40 receptor in rat INS1(832/13) cells assessed as induction of IP1 accumulation at 10 uM; format: functional, cell-based; conditions: INS-1 832/13, filed as agonist
[23] = molecular target: Free fatty acid receptor 1 (Rattus norvegicus) (UniProt Q8K3T4); test: Agonist activity at rat GPR40 receptor expressed in CHOK1 cells assessed as induction of IP1 accumulation at 10 uM; format: functional, cell-based; conditions: CHO-K1, filed as agonist
[24] = molecular target: T2, Free fatty acid receptor 1; test: Agonist activity at human GPR40 receptor expressed in CHOK1 cells assessed as induction of IP1 accumulation at 10 uM; format: functional, cell-based; conditions: CHO-K1, filed as agonist
[25] = Apparent permeability from basolateral to apical side in dog MDCK-MDR1 cells; format: ADME, cell-based, Canis lupus familiaris
[26] = Apparent permeability across apical to basolateral side in human Caco2 cells; format: ADME, cell-based; conditions: Caco-2
[27] = Volume of distribution at steady state in dog; format: ADME, Canis lupus familiaris; conditions: in vivo, read-out: Vdss
[28] = Cmax in rat; format: ADME; conditions: in vivo
[29] = Cmax in dog; format: ADME, Canis lupus familiaris; conditions: in vivo
[30] = Half life in iv dosed cynomolgus monkey; format: ADME, organism-based, Macaca fascicularis; conditions: in vivo
[31] = Clearance in cynomolgus monkey; format: ADME, Macaca fascicularis; conditions: in vivo
[32] = Half life in iv dosed rat; format: ADME, organism-based; conditions: in vivo
[33] = Clearance in rat; format: ADME; conditions: in vivo
[34] = Clearance in dog; format: ADME, Canis lupus familiaris; conditions: in vivo
[35] = Oral bioavailability in cynomolgus monkey; format: ADME, organism-based, Macaca fascicularis; conditions: in vivo
[36] = Protein binding in cynomolgus monkey plasma; format: ADME, cell-free, Macaca fascicularis; conditions: read-out: PPB (converted)
[37] = molecular target: T2, Free fatty acid receptor 1; test: Agonist activity at human GPR40 transfected in HEK293 cells assessed as increase in intracellular calcium level incubated for 1 hr by Fluo-8 dye based fluorescence analysis; format: functional, cell-based; conditions: hek293

T1 sequence (P08684 whole entry): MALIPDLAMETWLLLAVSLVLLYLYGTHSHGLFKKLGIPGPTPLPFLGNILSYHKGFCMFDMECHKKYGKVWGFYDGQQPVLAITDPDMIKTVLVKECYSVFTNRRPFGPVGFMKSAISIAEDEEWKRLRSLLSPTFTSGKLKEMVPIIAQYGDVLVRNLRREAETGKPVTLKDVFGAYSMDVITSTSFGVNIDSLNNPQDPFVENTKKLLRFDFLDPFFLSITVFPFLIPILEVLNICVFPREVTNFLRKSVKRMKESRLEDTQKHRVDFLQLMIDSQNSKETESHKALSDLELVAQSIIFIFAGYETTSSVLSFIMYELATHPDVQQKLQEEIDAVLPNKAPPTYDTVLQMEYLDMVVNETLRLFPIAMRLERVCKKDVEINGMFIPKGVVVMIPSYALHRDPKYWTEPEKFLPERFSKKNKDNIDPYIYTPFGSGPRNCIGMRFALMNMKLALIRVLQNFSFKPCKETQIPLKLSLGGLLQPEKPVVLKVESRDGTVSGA

In the case of `COc1cc(-c2ncc(COc3cccc([C@@H](CC(=O)O)C4CC4)c3)nc2CC(C)C)c(F)cn1`, the fraction unbound [1] is reported as 0.0009, the fraction unbound [2] is reported as 0.0012 and the IC50 (Cytochrome P450 3A4 [3]) is reported as > 10 µM. For the same compound, the IC50 (Cytochrome P450 2C19) was > 10 µM, the Activity [4] was 354% and the minimal effective dose (Rattus norvegicus [5]) was 3 mg/kg. For the same compound, the IC50 (Cytochrome P450 3A4 [6]) was 8 µM, the Activity [7] was “inactive” and the Activity [8] was “inactive”. The Activity (Mus musculus [9]) was “inactive”, the Drug metabolism [10] was “Metabolite_Detected” and the Activity (Mus musculus [11]) was “Active”. The Activity (Rattus norvegicus [12]) was 51024 ng/mL.hr, the Activity (Rattus norvegicus [13]) was 16769 ng/mL.hr and the Activity (Rattus norvegicus [14]) was 15896 ng/mL.hr. The Activity (Rattus norvegicus [15]) was 5275 ng/mL, the Activity (Rattus norvegicus [16]) was 16925 ng/mL and the Activity (Rattus norvegicus [17]) was 1405 ng/mL. The Activity (Mus musculus [18]) was “Active”, the Activity [19] was “Active” and the Activity [20] was 104%. For the same compound, the Activity [21] was 208%, the Activity [22] was 1170 nM and the Activity [23] was 572 nM. It also gave an Activity [24] of 1040 nM, a Papp B→A [25] of 82 ×10⁻⁶ cm/s and a Papp A→B [26] of 40 ×10⁻⁶ cm/s. It also gave a Vd [27] of 1.62 L/kg, a Cmax [28] of 9720 ng/mL and a Cmax [29] of 1550 ng/mL. It also gave a half-life [30] of 11.2 h, a clearance [31] of 2.19 mL/min/kg and a half-life [32] of 2.71 h. For the same compound, the clearance [33] was 2.37 mL/min/kg, the clearance [34] was 8.36 mL/min/kg and the bioavailability [35] was 99.4%. The fraction unbound [36] was 0.0009 and the EC50 [37] was 0.002 µM.

From ChEMBL document CHEMBL4673209, “Discovery of a novel potent GPR40 full agonist” (Bioorg Med Chem Lett, 2018)
